Test results as given in ChEMBL document CHEMBL1201862, “PubChem BioAssay data set” (2004).
Calls of active or inactive are those of the source.

How the values were obtained:
HEK293 [1] = test: cells; details: Homo sapiens
HEK293 [2] = test: cells; details: Homo sapiens; remark: listed apart in the source
[3] = viability loss of HMLE_sh_eGFP cells – cell-based, luminescence, counter-screen for HMLE_sh_ECad selective toxicity project, dose response (AID 463074); format: functional, Homo sapiens;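 note: HMLE human mammary epithelial cells expressing control shRNA against eGFP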
[4] = Luminescence Cell-Based Dose Retest to Confirm Inhibitors of Cancer Stem Cells. [Related pubchem assays (depositor defined):AID2717, AID2721]; format: functional; details: Homo sapiens
Streptokinase A = target: T1, Streptokinase A (Streptococcus pyogenes serotype M1, UniProt P10520); test: viability-normalized secreted streptokinase activity reduction – plasminogen activation absorbance, OD405, dose response (AID 1914); format: functional, Streptococcus pyogenes M1 GAS;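 note: secreted streptokinase activity via plasminogen activation per viability signal from cell pellet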
T1 sequence (P10520 whole entry): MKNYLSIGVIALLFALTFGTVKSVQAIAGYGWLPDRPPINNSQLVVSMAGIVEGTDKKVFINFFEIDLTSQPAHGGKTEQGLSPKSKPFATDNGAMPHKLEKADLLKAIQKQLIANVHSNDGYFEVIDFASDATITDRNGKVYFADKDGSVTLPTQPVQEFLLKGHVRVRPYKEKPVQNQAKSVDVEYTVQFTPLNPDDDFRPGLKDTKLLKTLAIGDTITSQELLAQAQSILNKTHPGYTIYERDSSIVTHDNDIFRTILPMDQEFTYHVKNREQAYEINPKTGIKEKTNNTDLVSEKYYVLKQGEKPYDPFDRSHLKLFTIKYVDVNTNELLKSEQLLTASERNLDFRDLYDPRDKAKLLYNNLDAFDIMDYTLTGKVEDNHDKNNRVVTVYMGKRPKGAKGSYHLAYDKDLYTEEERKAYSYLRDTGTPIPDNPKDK

[5] = target: T2, Alkaline phosphatase, tissue-nonspecific isozyme (Homo sapiens, UniProt P05186); test: TNAP enzyme inhibition by screening hits, dose response, selectivity assay for mouse IAP inhibitor project, biochemical, human TNAP, uHTS hits (AID 488906); format: functional
T2 sequence (P05186 whole entry): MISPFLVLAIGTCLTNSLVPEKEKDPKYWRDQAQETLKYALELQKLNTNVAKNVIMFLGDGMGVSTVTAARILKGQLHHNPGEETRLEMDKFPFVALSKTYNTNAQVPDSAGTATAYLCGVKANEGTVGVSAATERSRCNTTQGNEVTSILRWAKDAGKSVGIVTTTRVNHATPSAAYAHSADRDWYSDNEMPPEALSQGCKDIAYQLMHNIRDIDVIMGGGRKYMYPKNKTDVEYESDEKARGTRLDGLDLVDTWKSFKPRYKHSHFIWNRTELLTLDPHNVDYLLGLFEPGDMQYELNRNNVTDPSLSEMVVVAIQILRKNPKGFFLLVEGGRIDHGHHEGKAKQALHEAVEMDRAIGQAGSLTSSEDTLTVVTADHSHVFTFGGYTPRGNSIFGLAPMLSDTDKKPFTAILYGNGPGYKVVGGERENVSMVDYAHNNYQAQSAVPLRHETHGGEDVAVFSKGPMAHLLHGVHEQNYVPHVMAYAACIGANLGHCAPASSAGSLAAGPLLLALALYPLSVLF

[6] = target: Intestinal-type alkaline phosphatase (Mus musculus, UniProt P24822); test: PubChem AID 488785; format: functional
[7] = target: Intestinal-type alkaline phosphatase (Homo sapiens, UniProt P09923); test: inhibition of human intestinal alkaline phosphatase – biochemical, dose response (AID 488876); format: functional
[8] = target: T3, Ubiquitin-conjugating enzyme E2 N (Homo sapiens, UniProt P61088); format: functional;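 note: Dose-response confirmation in a TR-FRET assay detecting UBC13-driven polyubiquitin chain formation, inhibition measured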
T3 sequence (P61088 whole entry): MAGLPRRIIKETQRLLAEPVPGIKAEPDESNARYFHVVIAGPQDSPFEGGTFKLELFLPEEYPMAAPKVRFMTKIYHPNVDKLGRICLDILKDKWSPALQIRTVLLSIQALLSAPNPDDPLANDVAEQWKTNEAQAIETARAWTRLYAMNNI

[9] = NIH3T3 cell viability loss – ATP luminescence, mouse fibroblasts, counter-screen, dose response (AID 2010); format: functional, cell-based; details: NIH3T3;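 note: cells exposed to compound for about 90 hours before reading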
[10] = Trypanosoma cruzi growth suppression in host cells – NIH3T3 host cells, beta-gal luminescence, confirmation (AID 2044); format: functional, cell-based;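 note: intracellular parasites grown in NIH/3T3 mouse fibroblasts as host cells; luminescent beta-galactosidase reporter signal from transgenic T. cruzi replicating inside host cells; inhibitors lower the luminescence signal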
[11] = target: T4, DNA repair protein RAD52 homolog (Homo sapiens, UniProt P43351); format: functional, biochemical
T4 sequence (P43351 whole entry): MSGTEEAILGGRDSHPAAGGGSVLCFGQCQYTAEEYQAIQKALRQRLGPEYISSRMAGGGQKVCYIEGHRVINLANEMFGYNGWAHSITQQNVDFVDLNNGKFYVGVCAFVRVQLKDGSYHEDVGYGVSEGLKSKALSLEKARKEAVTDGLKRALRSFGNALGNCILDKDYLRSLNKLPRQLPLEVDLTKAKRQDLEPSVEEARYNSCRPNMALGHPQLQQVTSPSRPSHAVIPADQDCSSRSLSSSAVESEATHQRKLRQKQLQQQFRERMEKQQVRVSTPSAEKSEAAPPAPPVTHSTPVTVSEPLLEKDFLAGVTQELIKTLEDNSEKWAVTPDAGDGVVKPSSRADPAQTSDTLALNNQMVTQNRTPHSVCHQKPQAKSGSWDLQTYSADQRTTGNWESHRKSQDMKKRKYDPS

[12] = IC50 of Artemis nuclease activity blockers – biochemical, fluorescence intensity, dose response (AID 720701); format: functional;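 note: Artemis endonuclease enzyme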
[13] = viability loss in HeLa cells – cytotoxicity control for MgcRacGAP inhibitor project, dose response (AID 624300); format: functional
Procathepsin L = Procathepsin L (Homo sapiens, UniProt P07711)
[14] = target: T5, Rac GTPase-activating protein 1 (Homo sapiens, UniProt Q9H0H5); test: blockers of MgcRacGAP-driven Rac1 GTP hydrolysis – biochemical, ADP Hunter fluorescence, primary and confirmatory, confirmation (AID 624330); format: functional
T5 sequence (Q9H0H5 whole entry): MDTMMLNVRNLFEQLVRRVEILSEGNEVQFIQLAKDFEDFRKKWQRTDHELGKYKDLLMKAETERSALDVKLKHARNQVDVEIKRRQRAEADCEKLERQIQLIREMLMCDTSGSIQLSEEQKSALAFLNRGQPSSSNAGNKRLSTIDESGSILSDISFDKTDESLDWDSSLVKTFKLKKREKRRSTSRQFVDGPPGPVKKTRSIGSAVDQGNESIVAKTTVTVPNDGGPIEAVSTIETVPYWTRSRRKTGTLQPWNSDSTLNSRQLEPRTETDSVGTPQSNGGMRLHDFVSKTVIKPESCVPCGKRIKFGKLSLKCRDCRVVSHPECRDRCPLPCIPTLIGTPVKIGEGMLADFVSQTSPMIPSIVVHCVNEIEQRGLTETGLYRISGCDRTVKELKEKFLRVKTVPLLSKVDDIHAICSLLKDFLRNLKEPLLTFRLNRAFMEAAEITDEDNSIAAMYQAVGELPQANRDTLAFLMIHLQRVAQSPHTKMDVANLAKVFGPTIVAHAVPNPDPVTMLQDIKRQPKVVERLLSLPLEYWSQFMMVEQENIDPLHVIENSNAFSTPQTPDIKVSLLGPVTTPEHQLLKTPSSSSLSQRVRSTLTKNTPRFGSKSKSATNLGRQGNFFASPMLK

Aspartyl aminopeptidase = target: T6, Aspartyl aminopeptidase (Plasmodium falciparum 3D7, UniProt Q8I2J3)
T6 sequence (Q8I2J3 whole entry): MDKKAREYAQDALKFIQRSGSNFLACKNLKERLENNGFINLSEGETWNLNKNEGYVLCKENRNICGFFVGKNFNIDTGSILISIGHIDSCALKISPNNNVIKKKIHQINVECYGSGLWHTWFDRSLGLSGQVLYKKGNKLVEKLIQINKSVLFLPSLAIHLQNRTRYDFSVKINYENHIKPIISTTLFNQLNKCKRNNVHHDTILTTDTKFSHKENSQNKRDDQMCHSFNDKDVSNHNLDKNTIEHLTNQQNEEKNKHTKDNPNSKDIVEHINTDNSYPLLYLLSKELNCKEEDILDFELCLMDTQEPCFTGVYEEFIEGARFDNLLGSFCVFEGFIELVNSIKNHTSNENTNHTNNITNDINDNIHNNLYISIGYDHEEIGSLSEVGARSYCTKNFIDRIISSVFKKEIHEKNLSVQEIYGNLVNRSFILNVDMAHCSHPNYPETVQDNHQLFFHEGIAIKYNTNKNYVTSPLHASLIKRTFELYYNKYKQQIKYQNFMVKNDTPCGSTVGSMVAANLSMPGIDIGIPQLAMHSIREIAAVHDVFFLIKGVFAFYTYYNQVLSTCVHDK

Bcl-2-like protein 10 = Bcl-2-like protein 10 (Homo sapiens, UniProt Q9HD36); test: Bcl-B/TR3 peptide binding disruption – biochemical, fluorescence polarization, FITC-TR3 peptide, selectivity assay for Bfl-1 inhibitor project, primary screen (AID 748);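 note: fluorescence polarization from a fluorescein-labelled TR3 peptide binding purified Bcl-B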
Large T antigen = Large T antigen (Simian virus 40, UniProt P03070); format: functional, Betapolyomavirus macacae;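 note: Confirmatory-stage PubChem screen for compounds that inhibit SV40 T antigen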
Protein RecA = target: T7, Protein RecA (Mycobacterium tuberculosis, UniProt P9WHJ3); test: Fluorescence Cell-Free Homogeneous Dose Retest to Identify Inhibitors of RecA-Intein Splicing Activity. [Related pubchem assays (depositor defined):AID2097, AID2223, AID489010, AID492950]; format: functional
T7 sequence (P9WHJ3 whole entry): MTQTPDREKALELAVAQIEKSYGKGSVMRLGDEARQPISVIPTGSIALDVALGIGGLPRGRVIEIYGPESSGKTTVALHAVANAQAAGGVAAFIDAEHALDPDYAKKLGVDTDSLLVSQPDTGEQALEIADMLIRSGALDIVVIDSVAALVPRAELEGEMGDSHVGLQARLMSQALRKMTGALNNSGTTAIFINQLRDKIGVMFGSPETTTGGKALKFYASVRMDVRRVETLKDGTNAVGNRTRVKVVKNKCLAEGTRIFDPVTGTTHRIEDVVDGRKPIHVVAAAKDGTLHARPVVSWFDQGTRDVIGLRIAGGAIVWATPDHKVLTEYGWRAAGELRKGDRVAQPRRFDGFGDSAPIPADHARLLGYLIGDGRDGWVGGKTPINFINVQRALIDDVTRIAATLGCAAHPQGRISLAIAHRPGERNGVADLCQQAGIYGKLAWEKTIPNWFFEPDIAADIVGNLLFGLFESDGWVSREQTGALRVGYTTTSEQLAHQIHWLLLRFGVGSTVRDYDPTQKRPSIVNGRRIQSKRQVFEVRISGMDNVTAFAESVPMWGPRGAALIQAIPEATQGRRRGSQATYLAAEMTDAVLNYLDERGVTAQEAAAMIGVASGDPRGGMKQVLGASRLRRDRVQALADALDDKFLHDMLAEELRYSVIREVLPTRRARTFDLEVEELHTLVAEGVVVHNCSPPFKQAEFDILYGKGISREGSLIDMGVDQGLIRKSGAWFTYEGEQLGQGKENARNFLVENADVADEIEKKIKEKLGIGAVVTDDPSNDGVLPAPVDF

[15] = target: T8, Replicative DNA helicase DnaB (Mycobacterium tuberculosis, UniProt P9WMR3); test: DnaB intein splicing inhibitors, dose response, biochemical, cell-free fluorescence (AID 449749); format: functional
T8 sequence (P9WMR3 whole entry): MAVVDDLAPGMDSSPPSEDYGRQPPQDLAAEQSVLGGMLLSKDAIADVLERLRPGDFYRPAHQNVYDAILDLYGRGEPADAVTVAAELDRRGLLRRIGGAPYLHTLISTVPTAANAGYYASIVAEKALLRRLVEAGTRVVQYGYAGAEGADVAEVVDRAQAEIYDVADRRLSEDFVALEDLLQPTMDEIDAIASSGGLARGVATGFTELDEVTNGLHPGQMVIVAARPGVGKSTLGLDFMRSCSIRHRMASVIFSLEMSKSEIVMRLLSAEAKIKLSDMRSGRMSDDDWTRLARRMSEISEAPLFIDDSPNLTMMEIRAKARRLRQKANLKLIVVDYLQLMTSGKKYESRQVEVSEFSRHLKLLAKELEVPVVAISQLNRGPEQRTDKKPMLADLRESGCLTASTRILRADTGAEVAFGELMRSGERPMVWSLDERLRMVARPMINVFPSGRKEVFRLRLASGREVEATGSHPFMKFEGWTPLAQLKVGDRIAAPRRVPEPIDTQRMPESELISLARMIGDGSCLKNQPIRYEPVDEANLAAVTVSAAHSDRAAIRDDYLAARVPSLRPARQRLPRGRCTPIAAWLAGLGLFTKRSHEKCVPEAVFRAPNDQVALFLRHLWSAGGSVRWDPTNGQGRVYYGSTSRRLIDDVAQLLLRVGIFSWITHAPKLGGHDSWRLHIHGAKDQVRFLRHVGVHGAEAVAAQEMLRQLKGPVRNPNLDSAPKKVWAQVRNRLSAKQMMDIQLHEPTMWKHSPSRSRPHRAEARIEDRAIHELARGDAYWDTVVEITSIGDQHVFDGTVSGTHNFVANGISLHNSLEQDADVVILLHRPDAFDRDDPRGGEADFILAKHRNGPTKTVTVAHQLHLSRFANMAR

Sequence of Intestinal-type alkaline phosphatase (Homo sapiens, UniProt P09923) (P09923 whole entry): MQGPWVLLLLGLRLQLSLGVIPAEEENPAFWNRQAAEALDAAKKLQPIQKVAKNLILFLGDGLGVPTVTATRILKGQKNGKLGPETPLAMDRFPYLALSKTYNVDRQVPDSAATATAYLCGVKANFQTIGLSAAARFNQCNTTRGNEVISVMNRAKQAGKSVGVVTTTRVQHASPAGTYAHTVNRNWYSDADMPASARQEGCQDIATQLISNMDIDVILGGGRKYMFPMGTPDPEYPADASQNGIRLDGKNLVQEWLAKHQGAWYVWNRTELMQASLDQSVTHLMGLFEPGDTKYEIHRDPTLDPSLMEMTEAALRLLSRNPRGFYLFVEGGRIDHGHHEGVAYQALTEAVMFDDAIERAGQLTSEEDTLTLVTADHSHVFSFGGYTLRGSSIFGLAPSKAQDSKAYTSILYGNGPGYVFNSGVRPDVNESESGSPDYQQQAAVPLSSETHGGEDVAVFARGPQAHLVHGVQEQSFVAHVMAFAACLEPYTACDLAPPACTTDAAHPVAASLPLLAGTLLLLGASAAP
Sequence of Intestinal-type alkaline phosphatase (Mus musculus, UniProt P24822) (P24822 whole entry): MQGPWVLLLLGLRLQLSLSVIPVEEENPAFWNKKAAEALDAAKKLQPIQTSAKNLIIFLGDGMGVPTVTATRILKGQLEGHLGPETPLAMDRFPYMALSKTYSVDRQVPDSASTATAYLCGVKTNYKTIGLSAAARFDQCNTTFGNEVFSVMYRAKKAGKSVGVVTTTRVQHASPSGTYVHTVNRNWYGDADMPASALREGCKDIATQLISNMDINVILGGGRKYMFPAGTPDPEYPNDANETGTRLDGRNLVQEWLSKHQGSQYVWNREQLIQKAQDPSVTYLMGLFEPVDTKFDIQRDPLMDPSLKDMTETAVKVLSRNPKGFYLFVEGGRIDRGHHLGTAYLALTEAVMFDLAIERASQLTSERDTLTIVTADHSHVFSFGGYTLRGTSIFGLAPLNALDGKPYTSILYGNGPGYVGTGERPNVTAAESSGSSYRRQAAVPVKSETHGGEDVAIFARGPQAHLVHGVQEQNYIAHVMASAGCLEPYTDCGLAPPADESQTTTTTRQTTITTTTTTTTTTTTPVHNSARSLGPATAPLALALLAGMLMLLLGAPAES
Sequence of Bcl-2-like protein 10 (Q9HD36 whole entry): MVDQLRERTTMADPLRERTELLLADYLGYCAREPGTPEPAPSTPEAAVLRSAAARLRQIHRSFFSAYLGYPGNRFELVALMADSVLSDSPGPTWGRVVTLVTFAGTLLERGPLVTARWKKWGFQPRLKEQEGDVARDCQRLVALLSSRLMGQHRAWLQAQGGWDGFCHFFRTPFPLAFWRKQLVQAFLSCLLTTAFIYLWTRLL
Sequence of Procathepsin L (P07711 whole entry): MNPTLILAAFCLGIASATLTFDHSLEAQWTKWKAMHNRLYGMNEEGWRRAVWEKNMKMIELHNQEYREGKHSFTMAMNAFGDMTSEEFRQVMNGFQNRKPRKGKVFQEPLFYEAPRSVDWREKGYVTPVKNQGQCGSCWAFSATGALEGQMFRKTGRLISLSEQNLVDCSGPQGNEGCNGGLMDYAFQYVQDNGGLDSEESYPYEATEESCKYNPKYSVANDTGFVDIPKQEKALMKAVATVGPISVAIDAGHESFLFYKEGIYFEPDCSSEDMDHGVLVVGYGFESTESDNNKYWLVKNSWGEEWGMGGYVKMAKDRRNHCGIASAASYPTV
Sequence of Large T antigen (P03070 whole entry): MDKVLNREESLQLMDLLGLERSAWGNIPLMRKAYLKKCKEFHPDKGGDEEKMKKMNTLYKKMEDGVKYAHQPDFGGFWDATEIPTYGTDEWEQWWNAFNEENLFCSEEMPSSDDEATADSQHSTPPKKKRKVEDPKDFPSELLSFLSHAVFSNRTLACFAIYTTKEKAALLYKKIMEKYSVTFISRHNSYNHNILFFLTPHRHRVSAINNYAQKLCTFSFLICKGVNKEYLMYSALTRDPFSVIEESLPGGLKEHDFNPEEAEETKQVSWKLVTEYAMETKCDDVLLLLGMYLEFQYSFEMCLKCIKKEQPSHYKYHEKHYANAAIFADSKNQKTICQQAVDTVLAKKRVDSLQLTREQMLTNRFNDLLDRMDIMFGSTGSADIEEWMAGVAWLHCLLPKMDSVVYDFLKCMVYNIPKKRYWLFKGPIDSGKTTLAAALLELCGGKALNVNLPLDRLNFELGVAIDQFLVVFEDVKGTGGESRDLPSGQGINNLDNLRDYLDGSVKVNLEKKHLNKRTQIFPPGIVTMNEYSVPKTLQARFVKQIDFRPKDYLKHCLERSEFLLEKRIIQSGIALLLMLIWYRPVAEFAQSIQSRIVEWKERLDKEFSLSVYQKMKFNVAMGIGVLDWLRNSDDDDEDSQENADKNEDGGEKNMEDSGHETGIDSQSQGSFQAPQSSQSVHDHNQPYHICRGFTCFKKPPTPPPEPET

| SMILES | EC50 (HEK293 [1]) | EC50 (HEK293 [2]) | AC50 [3] | AC50 [4] | IC50 [5] | IC50 [6] | IC50 [7] | further results |
| --- | --- | --- | --- | --- | --- | --- | --- | --- |
| C1COCCO1.CCOc1ccc(N2C(=O)CC(N(CCc3ccc(OC)c(OC)c3)C(S)=Nc3ccccc3)C2=O)cc1 (stereo not drawn) | > 59.7 µM (inactive) | > 59.7 µM (inactive) | – | – | – | – | – | – |
| CN(c1ccccc1)S(=O)(=O)c1ccc(-c2ccccc2)cc1 | – | – | 62.2 µM (active) | 2.66 µM (active) | – | – | – | – |
| Cc1cc(Cl)ccc1NC(=S)NCCC(c1ccccc1)c1ccccc1 | – | – | – | – | 80.1 µM (active) | 7.04 µM (active) | > 100 µM (inactive) | EC50 (Streptokinase A): 48.5 µM (active) |
| Cc1cc(N2CCN(C)CC2)nc2ccc(NC(=S)N3CCN(c4ccc(Cl)cc4)CC3)cc12 | – | – | 184 µM (active) | 0.367 µM (active) | – | – | – | IC50 [8]: > 20 µM (inactive); EC50 [9]: 11.9 µM (active); EC50 [10]: 0.762 µM (active); AC50 [11]: 3.07 µM (active) |
| O=C(COc1ccccc1C(=O)N/N=C\c1ccc(O)c(O)c1)N/N=C/c1ccc(O)c(O)c1 | – | – | – | – | > 100 µM (inactive) | 12.8 µM (active) | > 100 µM (inactive) | IC50 [12]: 1.91 µM (active); CC50 [13]: 100 µM (active); IC50 (Procathepsin L): > 59.6 µM (not active); IC50 [14]: 21.1 µM (active); IC50 (Aspartyl aminopeptidase): 1.5 µM (active); IC50 (Bcl-2-like protein 10): 1.07 µM (active) |
| O=C(CCl)Nc1ccc(N2CCCCCC2)cc1 | > 59.7 µM (inactive) | > 59.7 µM (inactive) | – | – | – | – | – | IC50 (Large T antigen): 18.9 µM (active); EC50 (Protein RecA): 7.62 µM (active); AC50 [15]: 14.3 µM (active) |
